Assay results from US20250019350A1, “SYNTHESIS OF THE PROSTATE SPECIFIC MEMBRANE ANTIGEN (PSMA) RADIOLABELED INHIBITOR [18F]DCFPYL” (Progenics Pharmaceuticals, Inc, priority 2023, published 2025).
Values joined by “and” are separate entries in the source; they are usually repeats but may differ in a detail not shown here. Equal entries are not always repeated.

Test: Radiolysis / stability of [18F]DCFPyL over time by HPLC with radiodetection (RCP, free 18F, radioactive impurities)
Format: physicochemical
Experimental: Those of ordinary skill in the art will be aware of techniques and systems for determining the radiochemical purity of a composition. In some cases, the radiochemical purity is determined using an HPLC associated with a radio-detector. Generally, the radiochemical purity is determined under ambient conditions (e.g., ambient temperature, ambient humidity, ambient light, etc.), such as in samples stored under such conditions.
Stability was assessed using reverse phase HPLC on a C18 column with a phosphate buffer/acetonitrile gradient mobile phase, and the elution profile was monitored using both UV and radiochemical detectors. Samples were analyzed either by direct injection onto the HPLC, dilution and injection or including the addition of tetraethylammonium fluoride (TEAF) into the sample before injection.
Known amounts of free ^18F either alone or spiked with TEAF were injected onto the analytic column and the eluent from the column collected over the course of a chromatogram and assaying the radioactivity using a Capintec. […] Adding TEAF into the analytic samples was incorporated into subsequent studies examining potential radiolysis of [^18F]DCFPyL to overcome some of the limitations of free ^18F quantification.
Analytical HPLC method was used. The method employs UV detection at 264 nm for chemical impurities, and an Eckert & Ziegler model B-FC-1000 gamma detector for radiochemical assays.

[1] = 110 mCi/mL in 50 mg/mL pH 5.8 ascorbic acid, T = 3.0 h
[2] = 110 mCi/mL in 50 mg/mL pH 5.8 ascorbic acid, T = 3.5 h
[3] = 110 mCi/mL in 50 mg/mL pH 5.8 ascorbic acid, T = 4.0 h
[4] = 147 mCi/mL in 0.9% Sodium Chloride, USP, no ascorbic acid, T = 0 h
[5] = 147 mCi/mL in 0.9% Sodium Chloride, USP, no ascorbic acid, T = 0.5 h
[6] = 147 mCi/mL in 0.9% Sodium Chloride, USP, no ascorbic acid, T = 1.0 h
[7] = 147 mCi/mL in 0.9% Sodium Chloride, USP, no ascorbic acid, T = 1.5 h
[8] = 147 mCi/mL in 0.9% Sodium Chloride, USP, no ascorbic acid, T = 2.0 h
[9] = 147 mCi/mL in 0.9% Sodium Chloride, USP, no ascorbic acid, T = 2.5 h
[10] = 147 mCi/mL in 0.9% Sodium Chloride, USP, no ascorbic acid, T = 3.0 h
[11] = 147 mCi/mL in 0.9% Sodium Chloride, USP, no ascorbic acid, T = 3.5 h
[12] = 147 mCi/mL in 0.9% Sodium Chloride, USP, no ascorbic acid, T = 4.0 h
[13] = T = 0/1, 50 mg/mL ascorbic acid pH 5.8, 20% ethanol, 106.5 mCi/mL at EOS
[14] = T = 0, 0.5 mg/mL ascorbic acid pH 5.8, 20% ethanol, 105.8 mCi/mL at EOS
[15] = T = 0, 1 mg/mL ascorbic acid pH 5.8, 20% ethanol, 107.0 mCi/mL at EOS
[16] = T = 0, 5 mg/mL ascorbic acid pH 5.8, 20% ethanol, 99.0 mCi/mL at EOS
[17] = T = 0, 20 mg/mL sodium citrate, 20% ethanol, 104.8 mCi/mL at EOS, MPA = 0.25% of main peak
[18] = T = 0, 50 mg/mL ascorbic acid pH 5.8, 20% ethanol, 139.7 mCi/mL at EOS
[19] = T = 0 hr, 50 mg/mL ascorbic acid pH 5.8 in final product vial, 20% ethanol, 110 mCi/mL at EOS
[20] = T = 0 hr, 100 mg/mL ascorbic acid pH 2.0, 256 mCi/mL at EOS
[21] = T = 0 hr, 20% ethanol in saline, 52 mCi/mL at EOS
[22] = T = 0 hr, 20% ethanol in saline, 65 mCi/mL at EOS
[23] = T = 0 hr, 20% ethanol in saline, 85 mCi/mL at EOS
[24] = T = 0 hr, 100% ethanol, 325 mCi/mL at EOS
[25] = T = 0 hr, control without ascorbic acid, 36% ethanol in saline, 147 mCi/mL at EOS
[26] = T = 3, 50 mg/mL ascorbic acid pH 5.8, 20% ethanol, 106.5 mCi/mL at EOS
[27] = T = 4, 50 mg/mL ascorbic acid pH 5.8, 20% ethanol, 106.5 mCi/mL at EOS
[28] = T = 6, 50 mg/mL ascorbic acid pH 5.8, 20% ethanol, 106.5 mCi/mL at EOS

O=C(O)CC[C@H](NC(=O)N[C@@H](CCCCNC(=O)c1ccc([18F])nc1)C(=O)O)C(=O)O [Lot 18F-DCFPyL, 2-(3-{1-carboxy-5-[(6-[18F]fluoro-pyridine-3-carbonyl)-amino]-pentyl}ureido)-pentanedioic acid]
free 18F accumulating over 4 hrs (50 mg/mL ascorbic acid pH 5.8, 20% ethanol, 111 mCi/mL at EOS): 0.26%
free 18F accumulating over 4 hrs (100 mg/mL ascorbic acid pH 2.0, 256 mCi/mL at EOS): 0.08%
18F-DCFPyL (110 mCi/mL in 50 mg/mL pH 5.8 ascorbic acid, T = 0 h): 99.73 area %
18F-DCFPyL (110 mCi/mL in 50 mg/mL pH 5.8 ascorbic acid, T = 0.5 h): 99.72 area %
18F-DCFPyL (110 mCi/mL in 50 mg/mL pH 5.8 ascorbic acid, T = 1.0 h): 96.74 area %
18F-DCFPyL (110 mCi/mL in 50 mg/mL pH 5.8 ascorbic acid, T = 1.5 h): 99.66 area %
18F-DCFPyL (110 mCi/mL in 50 mg/mL pH 5.8 ascorbic acid, T = 2.0 h): 99.76 area %
18F-DCFPyL (110 mCi/mL in 50 mg/mL pH 5.8 ascorbic acid, T = 2.5 h): 99.66 area %
18F-DCFPyL [1]: 99.30 area %
Free 18F [1]: 0.35 area %
18F-DCFPyL [2]: 99.46 area %
Free 18F [2]: 0.24 area %
18F-DCFPyL [3]: 99.43 area %
Free 18F [3]: 0.26 area %
18F-DCFPyL [4]: 94.17 area %
Free 18F [4]: 4.68 area %
18F-DCFPyL [5]: 90.65 area %
Free 18F [5]: 7.73 area %
18F-DCFPyL [6]: 90.71 area %
Free 18F [6]: 7.69 area %
18F-DCFPyL [7]: 89.59 area %
Free 18F [7]: 8.78 area %
18F-DCFPyL [8]: 89.50 area %
Free 18F [8]: 8.67 area %
18F-DCFPyL [9]: 88.79 area %
Free 18F [9]: 9.66 area %
18F-DCFPyL [10]: 88.94 area %
Free 18F [10]: 9.49 area %
18F-DCFPyL [11]: 88.90 area %
Free 18F [11]: 9.56 area %
18F-DCFPyL [12]: 89.06 area %
Free 18F [12]: 9.27 area %
Free 18F (256 mCi/mL in ethanol, ascorbic acid in process, T = 0 h): 0.29 area %
Free 18F (256 mCi/mL in ethanol, ascorbic acid in process, T = 0.5 h): 0.40 area %
Free 18F (256 mCi/mL in ethanol, ascorbic acid in process, T = 1.0 h): 0.31 area %
Free 18F (256 mCi/mL in ethanol, ascorbic acid in process, T = 1.5 h): 0.31 area %
Free 18F (256 mCi/mL in ethanol, ascorbic acid in process, T = 2.0 h): 0.31 area %
Free 18F (256 mCi/mL in ethanol, ascorbic acid in process, T = 2.5 h): 0.31 area %
Free 18F (256 mCi/mL in ethanol, ascorbic acid in process, T = 3.0 h): 0.29 area %
Free 18F (256 mCi/mL in ethanol, ascorbic acid in process, T = 3.5 h): 0.42 area %
Free 18F (256 mCi/mL in ethanol, ascorbic acid in process, T = 4.0 h): 0.40 area %
18F-DCFPyL (256 mCi/mL in ethanol, 100 mg/mL pH 2.0 ascorbic acid in collection vial and HLB wash, T = 0 h): 99.71 area %
18F-DCFPyL (256 mCi/mL in ethanol, 100 mg/mL pH 2.0 ascorbic acid in collection vial and HLB wash, T = 0.5 h): 99.60 area %
18F-DCFPyL (256 mCi/mL in ethanol, 100 mg/mL pH 2.0 ascorbic acid in collection vial and HLB wash, T = 1.0 h): 98.68 area %
18F-DCFPyL (256 mCi/mL in ethanol, 100 mg/mL pH 2.0 ascorbic acid in collection vial and HLB wash, T = 1.5 h): 98.58 area %
18F-DCFPyL (256 mCi/mL in ethanol, 100 mg/mL pH 2.0 ascorbic acid in collection vial and HLB wash, T = 2.0 h): 98.20 area %
18F-DCFPyL (256 mCi/mL in ethanol, 100 mg/mL pH 2.0 ascorbic acid in collection vial and HLB wash, T = 2.5 h): 98.71 area %
18F-DCFPyL (256 mCi/mL in ethanol, 100 mg/mL pH 2.0 ascorbic acid in collection vial and HLB wash, T = 3.0 h): 98.46 area %
18F-DCFPyL (256 mCi/mL in ethanol, 100 mg/mL pH 2.0 ascorbic acid in collection vial and HLB wash, T = 3.5 h): 97.96 area %
18F-DCFPyL (256 mCi/mL in ethanol, 100 mg/mL pH 2.0 ascorbic acid in collection vial and HLB wash, T = 4.0 h): 97.95 area %
RCP (4 hours, 5 mg/mL ascorbate pH 6 FPV prefill and 6 mg/mL pH 6 ascorbate as delivery solution): 98%
RCP (4 hours, 10 mg/mL pH 6 ascorbate in collection vial and 5 mg/mL pH 6 ascorbic acid in final product vial): 99%
% RCP (10 hours, 3.3 mg/mL ascorbic acid in FPV, 10 mg/mL pH 2 in collection vial): 97%
RCP (10 hours, 5 mg/mL, pH 6 ascorbate in the final product): 96%
% RCP (10 hours, 5.6 mg/mL ascorbic acid in FPV, 10 mg/mL pH 2 in collection vial): 98%
% RCP (10 hours, 7.8 mg/mL ascorbic acid in FPV, 10 mg/mL pH 2 in collection vial): 97%
RCP (10 hours, pH 2 ascorbate in collection vial, 5 mg/mL ascorbate pH 6 in FPV): 98%
% RCP (10 hours, pH 4.5): 98%
% RCP (10 hours, pH 5.5): 97%
% RCP (10 hours, pH 7.0): 97%
18F-DCFPyL (% RCP) [13]: 100.00%
Free F-18 [13]: 0.00%
18F-DCFPyL (% RCP) [14]: 100.00%
Free F-18 [14]: 0.00%
18F-DCFPyL (% RCP) [15]: 99.68%
Free F-18 [15]: 0.32%
Free F-18 (T = 0, 1 mg/mL sodium ascorbate, 20% ethanol, 111.5 mCi/mL at EOS): 0.57%
18F-DCFPyL (% RCP) [16]: 100.00%
Free F-18 [16]: 0.00%
Free F-18 (T = 0, 20 mg/mL sodium citrate, 20% ethanol, 104.8 mCi/mL at EOS): 10.22%
RT 3.4 radioactive impurity [17]: <MPA
RT 3.7 radioactive impurity [17]: <MPA
18F-DCFPyL (% RCP) [18]: 100.00%
Free F-18 [18]: 0.00%
RT 4.8 radioactive impurity (T = 0, 50 mg/mL ascorbic acid pH 5.8, 20% ethanol, 139.7 mCi/mL at EOS, MPA = 0.25% of main peak): <MPA
18F-DCFPyL (RCP) [19]: 99.7% and 99.73%
Free 18F [19]: < LLQ
RT 5.0 radioactive impurity [19]: 0.27%
18F-DCFPyL (RCP) (T = 0 hr, 50 mg/mL ascorbic acid pH 5.8 in final product vial, 20% ethanol, 110 mCi/mL at EOS, listed as [^18F]DCFPYL): 99.7%
18F-DCFPyL (RCP) [20]: 99.7% and 99.71%
Free 18F [20]: 0.29%
18F-DCFPyL (RCP) (T = 0 hr, 100 mg/mL ascorbic acid pH 2.0, 256 mCi/mL at EOS, listed as [^18F]DCFPYL): 99.7%
18F-DCFPyL (RCP) [21]: 99.31%
Free F-18 [21]: 0.23%
RT 5.0 radioactive impurity [21]: 0.46%
18F-DCFPyL (RCP) [22]: 98.75%
Free F-18 [22]: 0.91%
RT 5.0 radioactive impurity [22]: 0.34%
18F-DCFPyL (RCP) [23]: 97.56%
Free F-18 [23]: 2.10%
RT 5.0 radioactive impurity [23]: 0.34%
18F-DCFPyL (RCP) [24]: 98.37%
Free F-18 [24]: 1.63%
18F-DCFPyL (RCP) [25]: 94% and 94.17%
Free F-18 [25]: 4.68%
RT 5.0 radioactive impurity [25]: 0.50%
RT 5.9 radioactive impurity [25]: 0.64%
18F-DCFPyL (RCP) (T = 0 hr, control without ascorbic acid, 36% ethanol in saline, 147 mCi/mL at EOS, listed as [^18F]DCFPYL): 94%
Free F-18 (T = 0.5, 5 mg/mL sodium ascorbate, 20% ethanol, 114.6 mCi/mL at EOS): 0.39%
18F-DCFPyL (% RCP) [26]: 100.00%
Free F-18 [26]: 0.00%
18F-DCFPyL (% RCP) [27]: 99.75%
Free F-18 [27]: 0.25%
18F-DCFPyL (% RCP) [28]: 99.72%
Free F-18 [28]: 0.28%
